Measured values taken from patent publication US20140371069A1, “Short-Chain Alkyl Sulfonates in Pesticide Formulations and Applications” (priority 2011, published 2014).
Like-named read-outs stand apart in the source and are kept apart here.

Legend:
[1] = Stability of pesticide formulation containing glufosinate-ammonium and C8 ether sulfate at 1:1 weight ratio with test hydrotrope
From the text: Specifically, the pesticide active in the pesticide formulation is glufosinate-ammonium and the adjuvant is C8 ether sulfate.

[2] = Separation of the formulations after one freeze/thaw cycle (ternary diagram); type: physicochemical; details: FIG. 2 versus FIG. 4
Protocol: The formulations listed in Example 1 were subjected to a freeze/thaw cycle in which the formulations were frozen and thawed to room temperature. The stability of the formulations was then assessed. FIG. 2 illustrates the results of the assessment. FIG. 2 is a ternary diagram showing regions of varying percentages of separation after one freeze/thaw cycle of the formulations.
A freeze/thaw cycle changes the solubility of some of the components, therefore, by subjecting the formulations to a freeze/thaw cycle, the effect of the solubility change on the stability of the formulations can be assessed.
The formulations listed in Comparative Example 1 were subjected to a freeze/thaw cycle and the stability of the formulations was subsequently assessed. FIG. 4 illustrates the results of the assessment. FIG. 4 is a ternary diagram showing regions of varying percentages of separation after one freeze/thaw cycle of the formulations.

[3] = Separation of the formulations on standing at room temperature (ternary diagram); type: physicochemical; details: for region of stability (blue region) in ternary diagram of percentage of separation: glufosinate ammonium 25.8%, C8 ether sulfate 30.6%, hydrotrope 0-10%, propylene glycol 0-15% w/w
Protocol: A design experiment was performed in which pesticide formulations containing the following were prepared: [table] The formulations were allowed to sit for 24 hours at room temperature and the stability of the formulations was assessed. FIG. 1 illustrates the results of the experiment. FIG. 1 is a ternary diagram showing regions of varying percentages of separation after 24 hours at room temperature of the formulations containing the above-listed components. The numbers associated with the small colored bar in the upper left hand corner of the figure indicate the percentage of separation in the samples. The colors in the bar correspond to the colored regions in the ternary diagram. […] An experiment was performed in which pesticide formulations containing the following were prepared: [table] The formulations were allowed to sit for two hours at room temperature and the stability of the formulations was assessed. FIG. 3 illustrates the results of the experiment. FIG. 3 is a ternary diagram showing regions of varying percentages of separation after two hours at room temperature of the formulations containing the above-listed components.

[4] = glufosinate-ammonium and C8 ether sulfate at 1:1 weight ratio
[5] = after 24 hours at room temperature, FIG. 1

| Compound | stability of the pesticide formulation containing the material as hydrotrope [1] | stability of the pesticide formulation containing the material as hydrotrope [1, 4] | further results |
| --- | --- | --- | --- |
| COC(C)COC(C)CO (stereo not drawn) [dipropylene glycol monomethyl ether] | developed two phases that separated very quickly | – | – |
| CC(O)CO (stereo not drawn) [propylene glycol] | – | developed two phases that separated very quickly | – |
| CC(C)c1ccc(S(=O)(=O)[O-])cc1.[Na+] [sodium cumene sulfonate] | – | developed two phases that separated very quickly | – |
| CCCCCCCCS(=O)(=O)[O-].[Na+] [sodium octane sulfonate] | – | – | effectiveness as a hydrotrope compared with sodium xylene sulfonate [2]: more effective as a hydrotrope than sodium xylene sulfonate; effectiveness as a hydrotrope in the formulations [3, 5]: effective as a hydrotrope; region of stability (blue region) in ternary diagram of percentage of separation [3, 5]: large; effectiveness as a hydrotrope compared with sodium xylene sulfonate ([3]; room temperature, FIG. 1 (24 hours) versus FIG. 3 (two hours)): significantly more effective as a hydrotrope than sodium xylene sulfonate |
| C4 alcohol+2EO sulfate ester sodium salt | developed two phases that separated very quickly | – | – |
| C4 alcohol+4EO sulfate esters sodium salt | developed two phases that separated very quickly | – | – |
| C6 alcohol+4EO sodium salt | developed two phases that separated very quickly | – | – |
| sodium xylene sulfonate | – | developed two phases that separated very quickly | region of stability (blue region) in ternary diagram of percentage of separation ([3]; after two hours at room temperature, FIG. 3): small |
